# Activity calls are given as the source filed them. No cut-off for these calls is given here.
# How the values were obtained:
# [1] = target: T1, 3',5'-cyclic-AMP phosphodiesterase 4B (Homo sapiens, UniProt Q07343); assay: Inhibition of PDE4B (unknown origin) using [3H]cAMP as substrate at 10 uM incubated for 30 mins by scintillation proximity assay relative to control
# [2] = target: T1, 3',5'-cyclic-AMP phosphodiesterase 4B; assay: Inhibition of PDE4B (unknown origin) using [3H]cAMP as substrate incubated for 30 mins by scintillation proximity assay
# [3] = target: 3',5'-cyclic-AMP phosphodiesterase 4D (Homo sapiens, UniProt Q08499); assay: Inhibition of PDE4D (unknown origin)
# [4] = species on record: Homo sapiens; assay: Selectivity ratio of IC50 for PDE4D (unknown origin) to IC50 for PDE4B (unknown origin)
# [5] = target: Dual specificity calcium/calmodulin-dependent 3',5'-cyclic nucleotide phosphodiesterase 1A (Homo sapiens) (UniProt P54750); assay: Inhibition of PDE1A1 (unknown origin) at 10 uM relative to control
# [6] = target: Dual specificity calcium/calmodulin-dependent 3',5'-cyclic nucleotide phosphodiesterase 1B (Homo sapiens) (UniProt Q01064); assay: Inhibition of PDE1B (unknown origin) at 10 uM relative to control
# [7] = target: Dual specificity calcium/calmodulin-dependent 3',5'-cyclic nucleotide phosphodiesterase 1C (Homo sapiens) (UniProt Q14123); assay: Inhibition of PDE1C (unknown origin) at 10 uM relative to control
# [8] = target: cGMP-dependent 3',5'-cyclic phosphodiesterase (Homo sapiens) (UniProt O00408); assay: Inhibition of PDE2A1 (unknown origin) at 10 uM relative to control
# [9] = target: cGMP-inhibited 3',5'-cyclic phosphodiesterase 3A (Homo sapiens) (UniProt Q14432); assay: Inhibition of PDE3A (unknown origin) at 10 uM relative to control
# [10] = target: cGMP-inhibited 3',5'-cyclic phosphodiesterase 3B (Homo sapiens) (UniProt Q13370); assay: Inhibition of PDE3B (unknown origin) at 10 uM relative to control
# [11] = target: cGMP-specific 3',5'-cyclic phosphodiesterase (Homo sapiens) (UniProt O76074); assay: Inhibition of PDE5A1 (unknown origin) at 10 uM relative to control
# [12] = target: Cone cGMP-specific 3',5'-cyclic phosphodiesterase subunit alpha' (Homo sapiens) (UniProt P51160); assay: Inhibition of PDE6C (unknown origin) at 10 uM relative to control
# [13] = target: High affinity 3',5'-cyclic-AMP phosphodiesterase 7A (Homo sapiens) (UniProt Q13946); assay: Inhibition of PDE7A1 (unknown origin) at 10 uM relative to control
# [14] = target: 3',5'-cyclic-AMP phosphodiesterase 7B (Homo sapiens) (UniProt Q9NP56); assay: Inhibition of PDE7B (unknown origin) at 10 uM relative to control
# [15] = target: High affinity cAMP-specific and IBMX-insensitive 3',5'-cyclic phosphodiesterase 8A (Homo sapiens) (UniProt O60658); assay: Inhibition of PDE8A1 (unknown origin) at 10 uM relative to control
# [16] = target: High affinity cGMP-specific 3',5'-cyclic phosphodiesterase 9A (Homo sapiens) (UniProt O76083); assay: Inhibition of PDE9A2 (unknown origin) at 10 uM relative to control
# [17] = target: cAMP and cAMP-inhibited cGMP 3',5'-cyclic phosphodiesterase 10A (Homo sapiens) (UniProt Q9Y233); assay: Inhibition of PDE10A1 (unknown origin) at 10 uM relative to control
# [18] = target: cAMP and cAMP-inhibited cGMP 3',5'-cyclic phosphodiesterase 10A (Homo sapiens) (UniProt Q9Y233); assay: Inhibition of PDE10A2 (unknown origin) at 10 uM relative to control
# [19] = target: Dual 3',5'-cyclic-AMP and -GMP phosphodiesterase 11A (Homo sapiens) (UniProt Q9HCR9); assay: Inhibition of PDE11A4 (unknown origin) at 10 uM relative to control
# [20] = target: Tumor necrosis factor (Homo sapiens) (UniProt P01375); assay: Inhibition of TNF-alpha (unknown origin) at 10 uM relative to control
# [21] = target: Tumor necrosis factor (Homo sapiens) (UniProt P01375); assay: Inhibition of TNF-alpha (unknown origin) at 3 uM relative to control
# [22] = target: Tumor necrosis factor (Homo sapiens) (UniProt P01375); assay: Inhibition of TNF-alpha (unknown origin) at 1 uM relative to control
# [23] = target: Tumor necrosis factor (Homo sapiens) (UniProt P01375); assay: Inhibition of TNF-alpha (unknown origin) at 0.3 uM relative to control
# [24] = system: Rattus norvegicus; assay: Antiinflammatory activity against complete Freund's adjuvant induced ip dosed rat model of arthritis assessed as reduction in paw swelling measured on day 21 by macroscopic analysis; type: functional, organism-based; settings: time 21.0 day
# [25] = system: Rattus norvegicus; assay: Antiinflammatory activity against complete Freund's adjuvant induced rat model of arthritis assessed as reduction in paw volume at 30 mg/kg, ip measured on day 21 by macroscopic analysis; type: functional, organism-based; settings: time 21.0 day
# [26] = system: Rattus norvegicus; assay: Antiinflammatory activity against complete Freund's adjuvant induced rat model of arthritis assessed as improvement in intestinal absorption at 30 mg/kg, ip measured on day 21; type: functional, organism-based; settings: time 21.0 day
# [27] = system: Rattus norvegicus; assay: Antiinflammatory activity against complete Freund's adjuvant induced rat model of arthritis assessed as decrease in pathological changes at 30 mg/kg, ip measured on day 21 by H and E staining based histopathological analysis; type: functional, organism-based; settings: time 21.0 day
# [28] = system: Rattus norvegicus; assay: Antiinflammatory activity against complete Freund's adjuvant induced rat model of arthritis assessed as reduction in joint degeneration changes at 30 mg/kg, ip measured on day 21 by H and E staining based histopathological analysis; type: functional, organism-based; settings: time 21.0 day
# [29] = system: Rattus norvegicus; assay: Antiinflammatory activity against complete Freund's adjuvant induced rat model of arthritis assessed as decrease in TNF-alpha expression at 10 to 30 mg/kg, ip by immunohistochemical staining based assay; type: functional, organism-based; settings: dose 10-30 mg/kg
# [30] = system: Rattus norvegicus; assay: Antiinflammatory activity against complete Freund's adjuvant induced rat model of arthritis assessed as effect on IL-6 expression at 10 to 30 mg/kg, ip by immunohistochemical staining based assay; type: functional, organism-based; settings: dose 10-30 mg/kg
# [31] = system: RAW264.7; assay: Cytotoxicity against mouse RAW264.7 cells assessed as reduction in cell viability measured after 48 hrs by MTT assay; type: cell-based; settings: RAW264.7, 48 h
# [32] = Toxicity in zebrafish embryos assessed as teratogenicity at 1 to 100 uM; set-up: species or system Danio rerio; settings: in vivo, dose 1-100 µM
# [33] = Hepatotoxicity in zebrafish embryos assessed as effect on liver size at 1 to 100 uM; type: toxicity, Danio rerio; settings: in vivo, dose 1-100 µM
# [34] = Hepatotoxicity in zebrafish embryos assessed as liver degeneration at 1 to 100 uM; type: toxicity, Danio rerio; settings: in vivo, dose 1-100 µM
# [35] = Cardiac toxicity in zebrafish embryos assessed as effect on heart rate at 1 to 100 uM; set-up: species or system Danio rerio; settings: in vivo, dose 1-100 µM
# [36] = Toxicity in zebrafish embryos assessed as induction of apoptosis at 1 to 100 uM; set-up: species or system Danio rerio; settings: dose 1-100 µM
# [37] = target: Tumor necrosis factor (Homo sapiens) (UniProt P01375); assay: Inhibition of TNF-alpha (unknown origin) at 0.1 uM relative to control
# [38] = system: Rattus norvegicus; assay: Antiinflammatory activity against complete Freund's adjuvant induced rat model of arthritis assessed as reduction in paw volume at 1 mg/kg, po administered once daily measured on day 21 by macroscopic analysis; type: functional, organism-based; settings: time 21.0 day
# [39] = system: Rattus norvegicus; assay: Antiinflammatory activity against complete Freund's adjuvant induced rat model of arthritis assessed as reduction in joint structure deformity at 1 mg/kg, ip measured on day 21 by radiographic analysis; type: functional, organism-based; settings: time 21.0 day
# Tumor necrosis factor (Homo sapiens), sequence (P01375 whole entry): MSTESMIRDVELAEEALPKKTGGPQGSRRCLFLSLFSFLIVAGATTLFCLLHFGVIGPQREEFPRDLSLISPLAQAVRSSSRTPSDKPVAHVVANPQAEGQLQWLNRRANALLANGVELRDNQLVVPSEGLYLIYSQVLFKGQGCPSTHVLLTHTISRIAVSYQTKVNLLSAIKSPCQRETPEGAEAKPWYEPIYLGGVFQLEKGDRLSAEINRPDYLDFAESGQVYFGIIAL
# T1 sequence (Q07343 whole entry): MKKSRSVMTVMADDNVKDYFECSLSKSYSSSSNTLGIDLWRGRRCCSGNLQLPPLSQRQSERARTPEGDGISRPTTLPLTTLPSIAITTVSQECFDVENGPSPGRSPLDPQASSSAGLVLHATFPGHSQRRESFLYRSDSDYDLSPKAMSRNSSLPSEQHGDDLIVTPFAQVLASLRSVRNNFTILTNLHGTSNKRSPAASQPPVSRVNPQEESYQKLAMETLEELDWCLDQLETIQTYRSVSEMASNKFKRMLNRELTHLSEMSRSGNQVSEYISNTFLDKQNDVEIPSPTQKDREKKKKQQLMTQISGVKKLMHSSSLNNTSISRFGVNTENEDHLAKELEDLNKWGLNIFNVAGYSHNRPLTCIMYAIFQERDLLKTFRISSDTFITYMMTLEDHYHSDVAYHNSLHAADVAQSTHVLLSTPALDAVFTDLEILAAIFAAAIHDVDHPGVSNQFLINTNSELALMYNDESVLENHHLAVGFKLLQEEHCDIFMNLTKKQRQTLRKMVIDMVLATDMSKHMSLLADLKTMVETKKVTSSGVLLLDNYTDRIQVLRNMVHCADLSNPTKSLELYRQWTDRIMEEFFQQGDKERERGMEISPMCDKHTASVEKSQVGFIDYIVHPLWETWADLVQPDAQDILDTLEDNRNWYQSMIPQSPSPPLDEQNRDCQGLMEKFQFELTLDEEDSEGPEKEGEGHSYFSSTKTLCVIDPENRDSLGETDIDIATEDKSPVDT
# cAMP and cAMP-inhibited cGMP 3',5'-cyclic phosphodiesterase 10A (Homo sapiens), sequence (Q9Y233 whole entry): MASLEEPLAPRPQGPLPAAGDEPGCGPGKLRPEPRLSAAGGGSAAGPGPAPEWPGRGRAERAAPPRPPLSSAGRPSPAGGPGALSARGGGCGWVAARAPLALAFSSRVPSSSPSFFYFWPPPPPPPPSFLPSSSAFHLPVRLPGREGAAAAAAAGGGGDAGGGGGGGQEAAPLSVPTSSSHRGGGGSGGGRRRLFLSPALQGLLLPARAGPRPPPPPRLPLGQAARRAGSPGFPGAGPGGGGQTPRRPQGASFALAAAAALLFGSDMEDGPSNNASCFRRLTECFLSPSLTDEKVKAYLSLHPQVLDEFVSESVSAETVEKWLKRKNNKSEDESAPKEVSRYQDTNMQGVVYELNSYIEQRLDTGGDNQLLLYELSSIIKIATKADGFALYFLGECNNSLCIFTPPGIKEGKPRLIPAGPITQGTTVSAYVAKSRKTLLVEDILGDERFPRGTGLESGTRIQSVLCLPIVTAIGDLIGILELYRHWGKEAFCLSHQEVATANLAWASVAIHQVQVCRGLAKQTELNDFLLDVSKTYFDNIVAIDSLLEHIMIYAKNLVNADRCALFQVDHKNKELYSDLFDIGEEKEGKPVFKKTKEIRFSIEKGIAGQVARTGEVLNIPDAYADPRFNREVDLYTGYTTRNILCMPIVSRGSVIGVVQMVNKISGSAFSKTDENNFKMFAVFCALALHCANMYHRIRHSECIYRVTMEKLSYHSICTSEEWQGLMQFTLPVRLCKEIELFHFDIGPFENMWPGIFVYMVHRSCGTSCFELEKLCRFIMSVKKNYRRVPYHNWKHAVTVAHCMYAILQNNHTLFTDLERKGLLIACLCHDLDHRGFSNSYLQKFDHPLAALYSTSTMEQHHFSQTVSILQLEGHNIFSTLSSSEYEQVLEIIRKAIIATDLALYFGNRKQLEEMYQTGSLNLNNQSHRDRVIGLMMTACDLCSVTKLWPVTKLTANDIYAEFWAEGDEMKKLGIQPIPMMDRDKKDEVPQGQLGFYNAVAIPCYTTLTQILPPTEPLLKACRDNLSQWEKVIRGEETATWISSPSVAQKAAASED
# 3',5'-cyclic-AMP phosphodiesterase 4D, sequence (Q08499 whole entry): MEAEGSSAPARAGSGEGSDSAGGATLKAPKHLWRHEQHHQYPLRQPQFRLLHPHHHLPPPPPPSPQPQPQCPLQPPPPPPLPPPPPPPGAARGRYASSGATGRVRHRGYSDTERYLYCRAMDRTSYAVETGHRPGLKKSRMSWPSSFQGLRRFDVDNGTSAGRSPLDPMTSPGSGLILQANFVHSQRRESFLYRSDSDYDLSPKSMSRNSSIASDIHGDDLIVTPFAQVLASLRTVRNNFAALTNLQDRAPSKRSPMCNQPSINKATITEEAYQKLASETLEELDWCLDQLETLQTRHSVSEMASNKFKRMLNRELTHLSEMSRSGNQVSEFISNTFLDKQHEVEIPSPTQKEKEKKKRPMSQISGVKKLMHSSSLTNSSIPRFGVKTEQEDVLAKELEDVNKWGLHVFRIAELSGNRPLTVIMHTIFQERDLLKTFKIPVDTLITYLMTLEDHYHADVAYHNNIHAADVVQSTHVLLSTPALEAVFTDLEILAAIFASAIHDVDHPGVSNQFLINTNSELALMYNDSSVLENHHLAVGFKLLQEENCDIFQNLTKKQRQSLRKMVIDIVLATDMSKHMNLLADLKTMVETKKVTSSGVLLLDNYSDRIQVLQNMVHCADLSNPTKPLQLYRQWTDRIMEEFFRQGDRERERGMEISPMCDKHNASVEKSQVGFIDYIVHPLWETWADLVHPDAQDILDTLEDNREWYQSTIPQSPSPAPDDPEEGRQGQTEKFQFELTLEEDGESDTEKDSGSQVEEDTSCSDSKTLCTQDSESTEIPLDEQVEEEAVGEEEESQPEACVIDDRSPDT
# Dual specificity calcium/calmodulin-dependent 3',5'-cyclic nucleotide phosphodiesterase 1A (Homo sapiens), sequence (P54750 whole entry): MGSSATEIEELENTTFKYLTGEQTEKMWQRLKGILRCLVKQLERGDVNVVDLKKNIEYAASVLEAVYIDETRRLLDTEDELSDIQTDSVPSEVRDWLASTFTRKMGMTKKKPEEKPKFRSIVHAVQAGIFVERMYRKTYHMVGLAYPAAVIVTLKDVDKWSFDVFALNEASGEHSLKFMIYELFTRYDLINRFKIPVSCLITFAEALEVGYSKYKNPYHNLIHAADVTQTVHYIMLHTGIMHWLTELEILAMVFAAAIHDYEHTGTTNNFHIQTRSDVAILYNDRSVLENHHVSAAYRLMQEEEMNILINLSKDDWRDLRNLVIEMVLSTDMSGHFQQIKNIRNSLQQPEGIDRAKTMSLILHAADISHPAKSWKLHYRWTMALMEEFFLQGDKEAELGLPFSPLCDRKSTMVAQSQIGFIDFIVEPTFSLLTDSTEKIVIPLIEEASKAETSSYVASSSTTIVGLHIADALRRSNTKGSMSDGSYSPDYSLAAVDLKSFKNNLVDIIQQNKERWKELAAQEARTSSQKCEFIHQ
# High affinity cAMP-specific and IBMX-insensitive 3',5'-cyclic phosphodiesterase 8A (Homo sapiens), sequence (O60658 whole entry): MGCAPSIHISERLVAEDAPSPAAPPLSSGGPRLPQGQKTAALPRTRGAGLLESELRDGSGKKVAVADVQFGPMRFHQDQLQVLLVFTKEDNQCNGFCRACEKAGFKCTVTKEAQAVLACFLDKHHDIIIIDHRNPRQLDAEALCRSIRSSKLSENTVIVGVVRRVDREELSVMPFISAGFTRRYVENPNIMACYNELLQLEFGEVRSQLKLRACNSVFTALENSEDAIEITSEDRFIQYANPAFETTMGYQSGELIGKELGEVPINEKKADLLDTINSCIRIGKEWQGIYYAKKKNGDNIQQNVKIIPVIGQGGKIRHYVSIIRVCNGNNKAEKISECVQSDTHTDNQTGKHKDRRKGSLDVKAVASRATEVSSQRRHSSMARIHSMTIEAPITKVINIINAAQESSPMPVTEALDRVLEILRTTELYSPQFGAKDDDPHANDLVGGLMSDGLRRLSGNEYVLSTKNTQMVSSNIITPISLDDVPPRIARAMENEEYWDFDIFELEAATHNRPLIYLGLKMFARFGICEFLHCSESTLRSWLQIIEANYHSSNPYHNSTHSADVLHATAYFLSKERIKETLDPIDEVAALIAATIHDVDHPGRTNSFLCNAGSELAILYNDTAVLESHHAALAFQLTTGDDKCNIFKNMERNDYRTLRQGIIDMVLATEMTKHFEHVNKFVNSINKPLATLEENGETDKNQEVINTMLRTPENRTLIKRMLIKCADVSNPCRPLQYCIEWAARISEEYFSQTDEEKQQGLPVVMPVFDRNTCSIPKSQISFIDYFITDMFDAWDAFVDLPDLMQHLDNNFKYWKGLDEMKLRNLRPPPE
# 3',5'-cyclic-AMP phosphodiesterase 7B (Homo sapiens), sequence (Q9NP56 whole entry): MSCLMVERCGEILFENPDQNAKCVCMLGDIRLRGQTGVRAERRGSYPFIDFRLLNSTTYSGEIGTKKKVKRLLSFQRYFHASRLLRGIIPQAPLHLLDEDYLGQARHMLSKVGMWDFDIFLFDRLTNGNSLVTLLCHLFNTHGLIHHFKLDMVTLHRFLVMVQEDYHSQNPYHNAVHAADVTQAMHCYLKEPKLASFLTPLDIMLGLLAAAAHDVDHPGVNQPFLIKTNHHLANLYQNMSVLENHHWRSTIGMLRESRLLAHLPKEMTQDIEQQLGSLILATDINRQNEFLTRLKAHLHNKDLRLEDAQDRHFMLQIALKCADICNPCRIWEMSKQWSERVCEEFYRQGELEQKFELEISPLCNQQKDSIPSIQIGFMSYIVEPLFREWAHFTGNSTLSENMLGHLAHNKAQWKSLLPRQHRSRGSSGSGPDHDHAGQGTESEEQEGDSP
compound,measurement,setting,value
C=CCc1c(-c2ccc(NS(=O)(=O)c3ccccc3)cc2)oc(=O)c2cc(F)ccc12,inhibition,[1],94.4%
same,IC50,[2],1910 nM
C=CCc1c(-c2ccc(NS(C)(=O)=O)cc2)oc(=O)c2ccc(Cl)cc12,inhibition,[1],56%
C=CCc1c(-c2cccc(NS(=O)(=O)c3ccccc3)c2)oc(=O)c2ccc(Cl)cc12,inhibition,[1],81.2%
same,IC50,[2],4780 nM
C=CCc1c(-c2ccc(NS(=O)(=O)c3ccc(C)cc3)cc2)oc(=O)c2ccccc12,inhibition,[1],63.5%
C=CCc1c(-c2cccc(NS(=O)(=O)c3cccs3)c2)oc(=O)c2cc(F)ccc12,inhibition,[1],96%
same,IC50,[2],540 nM
same,IC50,[3],1340 nM
same,Ratio IC50,[4],2.5
same,inhibition,[5],21%
same,inhibition,[6],18%
same,inhibition,[7],24%
same,inhibition,[8],9%
same,inhibition,[9],11%
same,inhibition,[10],7%
same,inhibition,[11],8%
same,inhibition,[12],10%
same,inhibition,[13],6%
same,inhibition,[14],3%
same,inhibition,[15],2%
same,inhibition,[16],8%
same,inhibition,[17],12%
same,inhibition,[18],19%
same,inhibition,[19],11%
same,inhibition,[20],65.5%
same,inhibition,[21],45.6%
same,inhibition,[22],40.3%
same,inhibition,[23],30.9%
same,Activity,[24],Dose-Dependent Effect
same,Activity,[25],Active
same,Activity,[26],Active
same,Activity,[27],Active
same,Activity,[28],Active
same,Activity,[29],Active
same,Activity,[30],inactive
same,IC50,[31],> 100000 nM
same,Activity,[32],Non-Toxic
same,Activity,[33],Non-Toxic
same,Activity,[34],Non-Toxic
same,Activity,[35],Non-Toxic
same,Activity,[36],Non-Toxic
C=CCc1c(-c2cccc(NS(=O)(=O)c3ccc(OC)cc3)c2)oc(=O)c2ccccc12,inhibition,[1],80%
same,IC50,[2],3330 nM
C=CCc1c(-c2cccc(NS(C)(=O)=O)c2)oc(=O)c2ccc(Cl)cc12,inhibition,[1],62.2%
C=CCc1c(-c2cccc(NS(=O)(=O)c3cccs3)c2)oc(=O)c2ccc(Cl)cc12,inhibition,[1],75.7%
same,IC50,[2],4010 nM
C=CCc1c(-c2ccc(NS(=O)(=O)c3ccc(C)cc3)cc2)oc(=O)c2cc(F)ccc12,inhibition,[1],94%
same,IC50,[2],2360 nM
C=CCc1c(-c2cccc(NS(=O)(=O)c3cccs3)c2)oc(=O)c2ccccc12,inhibition,[1],85.9%
same,IC50,[2],1760 nM
C=CCc1c(-c2ccc(NS(C)(=O)=O)cc2)oc(=O)c2ccccc12,inhibition,[1],54.9%
C=CCc1c(-c2cccc(NC(=O)c3ccccc3)c2)oc(=O)c2ccccc12,inhibition,[1],72.6%
C=CCc1c(-c2cccc(NS(C)(=O)=O)c2)oc(=O)c2cc(F)ccc12,inhibition,[1],90.9%
same,IC50,[2],1940 nM
C=CCc1c(-c2cccc(NS(=O)(=O)c3ccccc3)c2)oc(=O)c2cc(F)ccc12,inhibition,[1],82.2%
same,IC50,[2],430 nM
same,IC50,[3],900 nM
same,Ratio IC50,[4],2
C=CCc1c(-c2ccc(NC(=O)c3ccccc3)cc2)oc(=O)c2ccccc12,inhibition,[1],46.5%
C=CCc1c(-c2cccc(NS(C)(=O)=O)c2)oc(=O)c2ccccc12,inhibition,[1],55.8%
COc1ccc(C2CNC(=O)C2)cc1OC1CCCC1 (stereo unspecified),inhibition,[1],77.2%
same,inhibition,[37],50.3%
C=CCc1c(-c2cccc(NS(=O)(=O)c3ccc(C)cc3)c2)oc(=O)c2cc(F)ccc12,inhibition,[1],79.7%
same,IC50,[2],3040 nM
C=CCc1c(-c2cccc(NS(=O)(=O)c3ccc(C(F)(F)F)cc3)c2)oc(=O)c2ccccc12,inhibition,[1],55.3%
CN(Cc1cnc2nc(N)nc(N)c2n1)c1ccc(C(=O)N[C@@H](CCC(=O)O)C(=O)O)cc1,Activity,[38],Active
same,Activity,[39],inactive
same,Activity,[29],Active
C=CCc1c(-c2cccc(NC(=O)c3ccccc3)c2)oc(=O)c2cc(F)ccc12,inhibition,[1],74.6%
C=CCc1c(-c2ccc(NS(=O)(=O)c3ccccc3)cc2)oc(=O)c2ccccc12,inhibition,[1],87.6%
same,IC50,[2],3910 nM
C=CCc1c(-c2cccc(NS(=O)(=O)c3ccccc3)c2)oc(=O)c2ccccc12,inhibition,[1],82.9%
same,IC50,[2],1240 nM
C=CCc1c(-c2cccc(NS(=O)(=O)c3ccc(C)cc3)c2)oc(=O)c2ccccc12,inhibition,[1],77.8%
same,IC50,[2],2070 nM

# Source: ChEMBL document CHEMBL4842324, “PdCl2-catalyzed synthesis of a new class of isocoumarin derivatives containing aminosulfonyl / aminocarboxamide moiety: First identification of a isocoumarin based PDE4 inhibitor” (Eur J Med Chem, 2021)
